Results reported in patent US11793792B2, “Composition for prevention and treatment of hair growth disorders” (GIULIANI S.P.A., priority 2018, dated 2023).

Assays:
[1] = test system: Lef1; assay: Lef1 gene expression (qRT-PCR) in human hair follicle organ culture; format: cell-based; settings: microdissected human anagen VI scalp hair follicles; 15 μM; treated 6 hours; normalized on GAPDH; vehicle = 1; N=8 HFs/group from 1 donor
Experimental: Evidence of the activity of compounds of the invention is provided by the expression of Lymphoid enhancer binding factor-1 (Lef1), which plays an important role in bulge stem cells cell growth and differentiation (International Journal of Medical Sciences 2013; 10 (6):738-746).
These products were reconstituted in DMSO (stock solution) and intermediate or working solutions were prepared diluting the stock or the intermediate solution in William's E medium. […]
RNA was extracted from hair follicles with RNeasy kit (Qiagen, USA), and reverse transcribed with Tetro cDNA synthesis kit (Bioline) according to manufacturer's instructions. qPCR was performed in QuantStudio3 (Thermo Fisher) with Taqman probe for Axin2 (Hs00610344_m1, Thermo Fisher), Lef1 (Hs01547250_m1, Thermo Fisher), b-actin (Hs01060665_g1, Life Technologies) and Gapdh (Hs02758991_g1, Thermo Fisher). Expression levels were calculated with the delta-delta CT method. […]

[2] = test system: Lef1; assay: LEF1 mRNA expression (RT-PCR) in Human Follicle Dermal Papilla Cells (HFDPC); format: cell-based; settings: 24 h incubation; for Lef1 fold of change mRNA expression: normalized to GAPDH, relative to untreated calibrator (vehicle = 1)
Source text: In the present test, Hair cell line (derma papilla cells) were used rather than human hair follicle, as in the experiment of Example 4.
We evaluated the stimulation of Lef1 (marker of hair growth) and we retested compound 1 and compound 5 and we use also included the compound WAY-316660, a relatively non-toxic specific antagonist of SFRP1, which has already been used for the treatment of osteoporosis, for its known hair growth promotion activity (Rif. Hawkshaw et al. Plos Biol, 2018; https://journals.plos.org/plosbiology/article?id=10.1371/journal.pbio.2003705).
Biological Model Human Follicle Dermal Papilla Cells (HFDPC)
The cell line was cultured in Follicle Dermal Papilla Cell medium in 25 cm^2 culture flasks at 37° C., 5% CO2. Every two days confluent cultures were splitted 1:3-1:6, after washing with PBS 1× (without Ca2+ and Mg2+), using Trypsin/EDTA and seed at 2-5·10^4 cell/cm^2, 37° C., 5% CO2.
The expression of LEF1 was investigated by RT-PCR. The analysis was performed according to the reported method (Gibson et al, 1996; Heid et al, 1996) using TaqMan Gene Expression Assay supplied by Applied Biosystems. Briefly, within a gene-specific PCR oligonucleotide primer pair, an oligonucleotide probe labelled with a reporter fluorescent dye (FAM) at the 50-end and a quencher fluorescent dye (TAMURA) at the 30-end was designed. When the probe was intact, the reporter dye emission was quenched. During the extension phase of the PCR cycle, the nucleolytic activity of the DNA polymerase cleaved the hybridization probe and released the reporter dye from the probe. Fluorescence intensity produced during PCR amplifications was monitored by a sequence detector directly in the reaction tube (“real time”). A computer algorithm compared the amount of reporter dye emission with the quenching dye emission and calculated the threshold cycle number (CT) when signals reached ten times the standard deviation of the baseline, from which the levels of the mRNAs transcribed from the various genes tested were obtained (Gibson et al, 1996).
Gene expression analysis involves four following step: • 1. Treatments of cells with active compounds for 24 h; • 2. RNA extraction; • 3. cDNA retro transcription; • 4. Quantitative RT-PCR; Day 1: Seed cells
When the cells (Human Follicle Dermal Papilla Cells) reached approximately 80% confluence, they were harvested with trypsin/EDTA and seeded at a density of 1×10^6 cells/ml into 12-well plates and then incubated at 37° C., 5% CO2 (24 h).
When the cells reached approximately 80% confluence, complete medium was removed; cells were washed once with PBS 1× and the incubated in Human Follicle Dermal Papilla Cells at 37° C., 5% CO2 for at least 24 h;
Compounds to be tested (WAY316606, 1, 5, 7, 17, 18, 20, 21, 24) were dissolved in DMSO and diluted at final concentration in Human Follicle Dermal Papilla Cells.
Cells were then incubated at 37° C., 5% CO2 for different 24 h.
Total RNAs were extracted from the cells using Tri Reagent (Thermo Fisher), that is a single, homogenous solution for the isolation of total RNA. This procedure is an improvement of the single-step method reported by (Chomczynski and Mackey, 1995) for total RNA isolation. Tri Reagent, a mixture of guanidine thiocyanate and phenol in a monophase solution, effectively dissolves DNA, RNA, and protein on homogenization or lysis of tissue sample and contains a unique combination of denaturants and RNase inhibitors and is used in a convenient, single-step disruption/separation procedure.
Total RNA, extracted and quantified, was amplified using the “PRIME SCRIPT RT reagent kit (Perfect Real time) (Takara).
For amplification we used the Real time PCR System Mx3000P (Stratagene) and each total RNA was amplified in duplicate.
The RT-PCR analysis was set, using TaqMan linear probes (Applied Biosystems). Those probes are the most widely used and published detection chemistry for qPCR applications. […]

Compound	genic expression of Lef1 (mRNA), mean [1]	effect on LEF1 mRNA expression / activity (in words) [2]	effect on LEF1 mRNA expression / activity (in words) ([2]; listed as 1)	Lef1 fold of change mRNA expression [2]	effect on LEF1 mRNA expression / activity (in words) ([2]; listed as 5)
COC(=O)c1c(NC(=O)CC2SC(=N)NC2=O)sc(C)c1C (centres unmarked) [Compound C1, 2-(2-(2-Imino-4-oxo-thiazolidin-5-yl)-acetylamino)-4,5-dimethyl-thiophene-3-carboxylic acid methyl ester]	3.425	more active	major induction of Lef1	8.43	
CCOC(=O)c1c(NC(=O)CC2SC(=N)NC2=O)sc(C)c1C (centres unmarked) [Compound C5, 2-(2-(2-Imino-4-oxo-thiazolidin-5-yl)-acetylamino)-4,5-dimethyl-thiophene-3-carboxylic acid ethyl ester]	6.134	more active		6.05	major induction of Lef1
CCOC(=O)c1c(NC(=O)CC2SC(=N)NC2=O)sc(Br)c1C (centres unmarked) [Compound C7]		more active		2.46	
COC(=O)c1ccsc1NC(=O)CC1SC(=N)NC1=O (centres unmarked) [Compound C17]		more active		2.52	
COC(=O)c1cc(-c2ccccc2)sc1NC(=O)CC1SC(=N)NC1=O (centres unmarked) [Compound C18]				1.56	
CCOC(=O)c1c(NC(=O)CC2SC(=N)NC2=O)sc(C)c1-c1ccccc1 (centres unmarked) [Compound C20]				1.39	
CCOC(=O)c1c(C2CC2)csc1NC(=O)CC1SC(=N)NC1=O (centres unmarked) [Compound C21]				1.79	
N=C1NC(=O)C(CC(=O)Nc2scc(C3CCC3)c2C(N)=O)S1 (centres unmarked) [Compound C24]				1.88	
O=S(=O)(NC1CCNCC1)c1cc(S(=O)(=O)c2ccccc2)ccc1C(F)(F)F [WAY-316606, reference compound]				2.18	
